{"source": "paper PMC9781827", "about": "“Isolation and Identification of Anti-Inflammatory Peptide from Goose Blood Hydrolysate to Ameliorate LPS-Mediated Inflammation and Oxidative Stress in RAW264.7 Macrophages” (Molecules, 2022)", "key": {"[1]": {"system": "RAW264.7 macrophages", "assay": "Viability / cytotoxicity of RAW264.7 macrophages", "assay_type": "cell-based", "conditions": "for viability of RAW264.7 macrophages: 3.0 μg/mL LPS, mean ± S.D., repeated three times", "experimental": "The method of RAW264.7 macrophage culture and treatments were based on the study of Li et al.. RAW264.7 macrophages (Lot number: BH0799, Chinese Academy of Sciences, Shanghai, China) were grown in DMEM-F medium (1:1) containing 3.15 g/L glucose, 0.365 g/L l-glutamine, 3.57 g/L HEPES, 10% FBS and 1% antibiotics at 37 °C in an atmosphere with 5% CO2 and 90% relative humidity. […] The optimal concentration of LPS for inducing inflammation in the RAW264.7 macrophage was ensured according to cell viability. Furthermore, RAW264.7 macrophages were cultured with different concentrations of GBP (100 μg/mL, 200 μg/mL and 400 μg/mL) to evaluate the cytotoxicity of GBP as described above. The ability of GBP to protect RAW264.7 macrophages was evaluated. In the LPS + GBP group, the macrophages medium supplemented with 200 μg/mL GBP was incubated for 2 h. Then, the macrophages medium was substituted with a macrophages medium supplemented with 1.0 μg/mL LPS and incubated for 24 h. In the LPS group, standard macrophages medium incubated for 2 h. Then, the standard macrophages medium was substituted with macrophages medium supplemented with 1.0 μg/mL LPS and incubated for 24 h. In the CTRL group, standard macrophages medium incubated for 2 h, Then, the standard macrophages medium was replaced with a new one and incubated for 24 h. Finally, the macrophages medium and macrophages were collected for further analysis."}, "[2]": {"system": "TLR4, CD14, MD-2, MyD88, p-NF-kB/NF-kB, IKKβ", "assay": "Western blot of TLR4, CD14, MD-2, MyD88, p-NF-kB/NF-kB, IKKβ in RAW264.7 macrophages", "assay_type": "cell-based", "conditions": "LPS group vs CTRL group, p < 0.05", "experimental": "RAW264.7 macrophages were washed with cold PBS and homogenized with two small magnetic beads (2 mm) and 10× volume of RIPA buffer containing 1% protease inhibitors for 60 s. Then the supernatant was collected after centrifuging at 12,000× g for 10 min at 4 °C, which was the total protein solution. The concentration of protein in the total protein solution was measured by BCA kits. The protein concentration of the supernatant was diluted to 2.0 mg/mL and mixed with an equal volume of buffer (0.25 mol/L Tris-HCl buffer, pH 6.8, containing 4% SDS and 20% glycerol with 20 mmol/L 2-mercaptoethanol). The stacking gel and separating gel were made of 5% (w/v) and 10% (w/v) polyacrylamide, respectively. Electrophoresis was carried out at 80 V until the dye front reached the bottom of the stacking gel, and the gel was run at 120 V until the dye front reached the bottom of the separating gel (165-8001, Bio-Rad Mini-PROTEAN Tetra Electrophoresis System). The PVDF membrane was covered on the gel and transferred membrane at 300 mA for 30 min. The membrane was moved into a decolorization shaker with 5% skim milk (0.5% TBST) and blocked for 1 h at room temperature. […] The film was scanned and archived, processed and decolorized by Photoshop, and the optical density value of the target band was analysed by ImageJ software processing system."}}, "data": [{"substance": "lipopolysaccharide [LPS]", "values": [{"measurement": "viability of RAW264.7 macrophages", "setting": "[1]; 24 h, Figure 1A", "value": "approximately 51.51 ± 4.29%"}, {"measurement": "viability of RAW264.7 macrophages", "setting": "[1]; LPS group of Figure 1C (CTRL 100 ± 7.35%)", "value": "51.57 ± 7.07", "unit": "%"}, {"measurement": "LPS concentration resulting in 50% RAW264.7 macrophages death", "setting": "[1]; 24 h, estimated from viability at 3.0 μg/mL", "value": "around 3.0 μg/mL"}, {"measurement": "protein expression levels of TLR4, CD14, MD2, MyD88, p-NF-kB, NF-kB and IKKβ", "setting": "[2]", "value": "elevated"}]}]}
